pIC50: −log10 of the molar value.
Experiments:
Chilo suppressalis [1] = assay: Insecticidal activity against OP-resistance Chilo suppressalis Hata-f (rice stem borer) assessed as mortality measured after 24 hr; assay type: functional
Chilo suppressalis [2] = assay: Insecticidal activity against OP-susceptible Chilo suppressalis S (rice stem borer) strain assessed as mortality measured after 24 hr; assay type: functional
Chilo suppressalis [3] = assay: Resistance ratio, LC50 for OP-resistance Chilo suppressalis Hata-f (rice stem borer) to OP-susceptible Chilo suppressalis S (rice stem borer) strain; assay type: functional
Chilo suppressalis [4] = assay: Potentiation of pirimiphos-methyl-induced insecticidal activity against OP-resistant Chilo suppressalis Hata-f (rice stem borer) assessed as synergistic ratio at 1:5 pirimiphos-methyl to compound ratio relative to pirimiphos-methyl alone; assay type: functional
Chilo suppressalis [5] = assay: Potentiation of pirimiphos-methyl-induced insecticidal activity against OP-resistant Chilo suppressalis Hata-f (rice stem borer) assessed as synergistic ratio at 1:10 pirimiphos-methyl to compound ratio relative to pirimiphos-methyl alone; assay type: functional
Chilo suppressalis [6] = assay: Potentiation of pirimiphos-methyl-induced insecticidal activity against OP-resistant Chilo suppressalis Hata-f (rice stem borer) assessed as synergistic ratio at 1:1 pirimiphos-methyl to compound ratio relative to pirimiphos-methyl alone; assay type: functional
Chilo suppressalis [7] = assay: Potentiation of fenitrothion-induced insecticidal activity against OP-resistant Chilo suppressalis Hata-f (rice stem borer) assessed as synergistic ratio at 1:10 fenitrothion to compound ratio relative to fenitrothion alone; assay type: functional
Chilo suppressalis [8] = assay: Potentiation of fenitrothion-induced insecticidal activity against OP-susceptible Chilo suppressalis (rice stem borer) S strain assessed as synergistic ratio at 1:10 fenitrothion to compound ratio relative to fenitrothion alone; assay type: functional
[9] = tested on: fenitrothion-detoxification activity by binding protein; assay: Inhibition of fenitrothion-detoxification activities by binding protein in OP-resistant Chilo suppressalis Hata-f (rice stem borer) at 1x10'-5M (reference value: 0%); assay type: organism-based; details: in vivo, probe fenitrothion
[10] = tested on: fenitrothion-detoxification activity by hydrolysis; assay: Inhibition of fenitrothion-detoxification activities by hydrolysis in OP-resistant Chilo suppressalis Hata-f (rice stem borer) at 1x10'-7M (reference value: 0%); assay type: organism-based; details: probe fenitrothion
[11] = tested on: fenitrothion-detoxification activity by binding protein; assay: Inhibition of fenitrothion-detoxification activities by binding protein in OP-resistant Chilo suppressalis Hata-f (rice stem borer) at 1x10'-7M (reference value: 0%); assay type: organism-based; details: in vivo, probe fenitrothion
[12] = tested on: fenitrothion-detoxification activity by binding protein; assay: Inhibition of fenitrothion-detoxification activities by binding protein in OP-resistant Chilo suppressalis Hata-f (rice stem borer) at 1x10'-6M (reference value: 0%); assay type: organism-based; details: in vivo, probe fenitrothion
[13] = tested on: fenitrothion-detoxification activity by hydrolysis; assay: Inhibition of fenitrothion-detoxification activities by hydrolysis in OP-resistant Chilo suppressalis Hata-f (rice stem borer) at 1x10'-5M (reference value: 0%); assay type: organism-based; details: probe fenitrothion
Chilo suppressalis [14] = assay: Inhibition of fenitrothion-detoxification activities by hydrolysis in OP-resistant Chilo suppressalis Hata-f (rice stem borer); assay type: organism-based; details: read-out: I50
[15] = tested on: fenitrothion-detoxification activity by binding protein; assay: Inhibition of fenitrothion-detoxification activities by binding protein in OP-resistant Chilo suppressalis Hata-f (rice stem borer) at 1x10'-4M (reference value: 0%); assay type: organism-based; details: in vivo, probe fenitrothion
[16] = tested on: fenitrothion-detoxification activity by hydrolysis; assay: Inhibition of fenitrothion-detoxification activities by hydrolysis in OP-resistant Chilo suppressalis Hata-f (rice stem borer) at 1x10'-4M (reference value: 0%); assay type: organism-based; details: probe fenitrothion
Chilo suppressalis [17] = assay: Inhibition of fenitrothion-detoxification activities by binding protein in OP-resistant Chilo suppressalis Hata-f (rice stem borer); assay type: organism-based; details: read-out: I50
[18] = tested on: fenitrothion-detoxification activity by hydrolysis; assay: Inhibition of fenitrothion-detoxification activities by hydrolysis in OP-resistant Chilo suppressalis Hata-f (rice stem borer) at 1x10'-6M (reference value: 0%); assay type: organism-based; details: probe fenitrothion

Structure (SMILES): CCN(CC)c1nc(C)cc(OP(=S)(OC)OC)n1 [PIRIMIPHOS METHYL]
- LD50 (Chilo suppressalis [1]): 1800 mg/kg
- LD50 (Chilo suppressalis [2]): 1.5 mg/kg
- RatioLC50 (Chilo suppressalis [3]): 1202

Structure (SMILES): COP(=O)(OC)Oc1ccc([N+](=O)[O-])c(C)c1 [FENITROXON]
- LD50 (Chilo suppressalis [1]): 27 mg/kg
- LD50 (Chilo suppressalis [2]): 1.2 mg/kg
- RatioLC50 (Chilo suppressalis [3]): 23

Structure (SMILES): CN(C)C(=O)Oc1cc(-c2ccccc2)on1
- fold change (FC) (Chilo suppressalis [4]): 328
- fold change (FC) (Chilo suppressalis [5]): 419
- fold change (FC) (Chilo suppressalis [6]): 67
- fold change (FC) (Chilo suppressalis [7]): 23
- fold change (FC) (Chilo suppressalis [8]): 0.9

Structure (SMILES): CSc1ccc(OC(=O)N(C)C)cc1C
- fold change (FC) (Chilo suppressalis [4]): 188
- fold change (FC) (Chilo suppressalis [5]): 231
- fold change (FC) (Chilo suppressalis [6]): 72
- fold change (FC) (Chilo suppressalis [7]): 22
- fold change (FC) (Chilo suppressalis [8]): 0.9

Structure (SMILES): Cc1cc(OC(=O)N(C)C)nc(N(C)C)n1
- inhibition at 10 µM [9]: 75%
- inhibition at 0.1 µM [10]: 0%
- fold change (FC) (Chilo suppressalis [4]): 751
- fold change (FC) (Chilo suppressalis [5]): 1061
- inhibition at 0.1 µM [11]: 0%
- inhibition at 1 µM [12]: 19.3%
- inhibition at 10 µM [13]: 66.7%
- pIC50 (Chilo suppressalis [14]): 5.35
- fold change (FC) (Chilo suppressalis [6]): 234
- inhibition at 100 µM [15]: 78.4%
- inhibition at 100 µM [16]: 78%
- fold change (FC) (Chilo suppressalis [7]): 38
- pIC50 (Chilo suppressalis [17]): 5.48
- inhibition at 1 µM [18]: 22.2%
- fold change (FC) (Chilo suppressalis [8]): 1

Structure (SMILES): Cc1cc(OC(=O)N(C)C)ccc1[N+](=O)[O-]
- fold change (FC) (Chilo suppressalis [4]): 196
- fold change (FC) (Chilo suppressalis [5]): 207
- fold change (FC) (Chilo suppressalis [6]): 67
- fold change (FC) (Chilo suppressalis [7]): 23
- fold change (FC) (Chilo suppressalis [8]): 0.7

Structure (SMILES): CNc1nc(C)cc(OC(=O)N(C)C)n1
- fold change (FC) (Chilo suppressalis [4]): 451
- fold change (FC) (Chilo suppressalis [5]): 818
- fold change (FC) (Chilo suppressalis [6]): 129
- fold change (FC) (Chilo suppressalis [7]): 21

Structure (SMILES): COP(=S)(OC)Oc1ccc([N+](=O)[O-])c(C)c1 [FENITROTHION]
- LD50 (Chilo suppressalis [1]): 69 mg/kg
- LD50 (Chilo suppressalis [2]): 1.8 mg/kg
- RatioLC50 (Chilo suppressalis [3]): 38

Structure (SMILES): CCN(CC)c1nc(C)cc(OC(=O)N(C)C)n1
- fold change (FC) (Chilo suppressalis [4]): 440
- fold change (FC) (Chilo suppressalis [5]): 451
- fold change (FC) (Chilo suppressalis [6]): 86
- fold change (FC) (Chilo suppressalis [7]): 20
- fold change (FC) (Chilo suppressalis [8]): 1

Structure (SMILES): Cc1cc(OC(=O)N(C)C)no1
- fold change (FC) (Chilo suppressalis [4]): 438
- fold change (FC) (Chilo suppressalis [5]): 582
- fold change (FC) (Chilo suppressalis [6]): 90
- fold change (FC) (Chilo suppressalis [7]): 16

From ChEMBL document CHEMBL3044873, “Aryl N, N-Dimethylcarbamates, Synergists for Organophosphorus Insecticides against Organophos-phorusresistant Rice Stem Borers” (J Pestic Sci, 1990)
